Results taken from patent US6498251B1, “Tetrahydrobenzindole derivatives” (Meiji Seika Kaisha, Ltd., priority 1997, dated 2002).

Columns and labels:
[1] = target: T1, human serotonin 5-HT7 receptor subtype (Homo sapiens, UniProt P34969); assay: Binding affinity for 5-HT7 receptor ([3H]-5CT binding test); conditions: for Ki: [3H]-5CT 1 nM, membrane fraction of cells expressing human 5-HT7, 37° C. 30 minutes, Ki calculated from IC50; for 5-HT2/5-HT7: ratio of Ki of 5-HT2 to Ki of 5-HT7 (selectivity)
T1 construct: expressed in transfected cells
Procedure: Test Example 1 Binding Affinity for 5-HT7 Rector
Cultured cells capable of expressing human serotonin 5-HT7 receptor subtype were harvested in an assay buffer solution (50 mM Tris-HCl containing 10 mM MgCl2and 0.5 mM EDTA, pH 7.4) and homogenized with a Potter tripe homogenizer, and then the membrane fraction was centrifuged for 20 minutes at 39,000 g and at 4° C. The thus obtained pellet was re-suspended in 1 ml, per cells per one culture dish of 10 cm in diameter, of the assay buffer solution and homogenized again.
The binding test was carried out using 1 nM in final concentration of [^3H]-5CT (carboxamide tryptamine) and from 1 to 1,000 nM of each substance to be tested (the compound (1) of the invention among Synthesis Examples), and adjusting the final assay volume to 300 μl by adding 100 μl of the membrane fraction suspension and then incubating the reaction system at 37° C. for 30 minutes. The incubation was terminated by quickly filtering on a GF/B filter, subsequently carrying out washing with 6 ml of cold 50 mM Tris-HCl (pH 7.4). The radioactivity was measured using a liquid scintillation counter. Non-specific binding was determined by 10 μM metergoline, and the specific binding was calculated based on the difference therefrom. The IC50 value was calculated from the inhibition curve of each compound, and the binding inhibition constant Ki was calculated from the value.

5-HT2 receptor = target: T2, 5-HT2 receptor (Rattus norvegicus, UniProt P14842); assay: Binding affinity for 5-HT2 receptor ([3H]ketanserin binding, rat cerebral cortex P2 fraction); conditions: [3H]ketanserin 1 nM, 37° C. 15 minutes, Ki calculated from IC50
T2 construct: Rat cerebral cortex was homogenized; from tissue; host or cells: rat cerebral cortex, P2 membrane fraction
Procedure: Test Example 2 Binding Affinity for 5-HT2 Rector
Rat cerebral cortex was homogenized in 10 volumes of 0.32 M sucrose solution and centrifuged for 10 minutes at 900×g, and the resulting supernatant fluid was again centrifuged for 20 minutes at 11,500×g. The thus obtained precipitate was re-suspended in 50 mM Tris-HCl (pH 7.4) buffer and centrifuged for 20 minutes at 39,900×g, and the thus obtained precipitate was used as P2 fraction.
The P2 fraction was incubated at 37° C. for 15 minutes in 50 mM Tris-HCl (pH 7.4) buffer containing 1 nM of [^3H]ketanserin and each of the compounds of the invention and then filtered after the reaction using Whatman GF/B glass filter. The radioactivity on the filter was measured using a liquid scintillation counter. Non-specific binding was determined by 10 μM ketanserin, and the specific binding was calculated based on the difference therefrom. The IC50 value was calculated from the inhibition curve of each compound, and the binding inhibition constant Ki was calculated from the value.

T1 sequence (P34969 whole entry): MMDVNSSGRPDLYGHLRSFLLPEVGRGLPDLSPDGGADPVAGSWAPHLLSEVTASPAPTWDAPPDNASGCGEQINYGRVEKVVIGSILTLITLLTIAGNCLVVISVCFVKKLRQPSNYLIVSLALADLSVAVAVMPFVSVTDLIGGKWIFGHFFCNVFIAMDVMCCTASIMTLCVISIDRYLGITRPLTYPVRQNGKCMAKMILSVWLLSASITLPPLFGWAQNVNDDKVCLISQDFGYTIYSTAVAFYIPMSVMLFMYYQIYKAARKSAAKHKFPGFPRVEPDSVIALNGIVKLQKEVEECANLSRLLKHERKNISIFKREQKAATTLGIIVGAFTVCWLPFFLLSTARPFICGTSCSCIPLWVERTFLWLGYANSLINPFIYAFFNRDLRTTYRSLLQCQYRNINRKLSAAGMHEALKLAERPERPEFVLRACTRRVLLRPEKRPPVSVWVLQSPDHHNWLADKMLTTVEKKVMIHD
T2 sequence (P14842 whole entry): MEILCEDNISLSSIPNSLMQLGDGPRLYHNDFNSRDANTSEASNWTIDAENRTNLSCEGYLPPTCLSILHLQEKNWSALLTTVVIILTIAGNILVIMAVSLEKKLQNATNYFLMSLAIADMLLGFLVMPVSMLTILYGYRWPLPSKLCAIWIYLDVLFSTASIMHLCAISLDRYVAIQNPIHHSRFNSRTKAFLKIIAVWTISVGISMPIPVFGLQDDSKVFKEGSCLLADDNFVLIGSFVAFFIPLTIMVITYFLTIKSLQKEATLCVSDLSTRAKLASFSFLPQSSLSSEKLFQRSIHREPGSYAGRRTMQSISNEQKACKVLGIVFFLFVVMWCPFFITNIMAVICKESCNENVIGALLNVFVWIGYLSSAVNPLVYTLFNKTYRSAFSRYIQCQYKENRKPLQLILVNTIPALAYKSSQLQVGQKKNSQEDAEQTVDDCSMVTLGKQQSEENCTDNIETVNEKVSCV

Row | SMILES | Ki [1] [nM] | 5-HT2/5-HT7 [1] | Ki (5-HT2 receptor) [nM]
1 | Cl.O=C1Nc2ccccc2N2CCN(CCCCC34CCCc5cccc(c53)NC4=O)CC12 (stereo not drawn) [Compd. of Syn. Ex. 13b, 2a-[4-(2,3,4,4a-Tetrahydro-1H-pyrazino[1,2-a]quinoxalin-5(6H)-one-3-yl)-butyl]-2a,3,4,5-tetrahydro-1H-benz[cd]indol-2-one Hydrochloride] | 8 | 48 | 385
2 | O=C1Nc2cccc3c2C1(CCCCN1CCN(C2CCCc4cnccc42)CC1)CCC3 (stereo not drawn) [Compd. of Syn. Ex. 37d, 2a-(4-(4-(5,6,7,8-Tetrahydroisoquinolin-5-yl)-piperazin-1-yl)butyl)-2a,3,4,5-tetrahydro-1H-benz[d]indol-2-one] | 8.8 | 100 | 882
3 | COCn1c2c(c3ccccc31)CCN(CCCCC13CCCc4cccc(c41)NC3=O)C2 (stereo not drawn) [Compd. of Syn. Ex. 21a, 2a-[4-(9-Methoxymethyl-2,3,4,9-tetrahydro-1H-pyrido[3,4-b]indol-2-yl)-butyl]-2a,3,4,5-tetrahydro-1H-benz[cd]indol-2-one] | 13 | 40 | 524
4 | O=C1Nc2cccc3c2C1(CCCCN1CCN2c4ccccc4[S+]([O-])CC2C1)CCC3 (stereo not drawn) [Compd. of Syn. Ex. 10b, 2a-[4-(1,2,3,4,4a,5-Hexahydro-6-oxo-6-λ^4-pyrazino[2,1-c]-1,4-benzthiazin-3-yl)-butyl]-2a,3,4,5-tetrahydro-1H-benz[cd]indol-2-one] | 7 | >143 | > 1000
5 | O=C1Nc2cccc3c2C1(CCCCN1CCc2c([nH]c4ccccc24)C1)CCC3 (stereo not drawn) [Compd. of Syn. Ex. 1a, 2a-[4-(2,3,4,9-Tetrahydro-1H-pyrido[3,4-b]indol-2-yl)-butyl]-2a,3,4,5-tetrahydro-1H-benz[cd]indol-2-one] | 7 | 33 | 227
6 | CC(c1ccccc1)N1CCN(CCCCC23CCCc4cccc(c42)NC3=O)CC1 (stereo not drawn) [Compd. of Syn. Ex. 2e, 2a-(4-(4-(1-Phenyl-ethyl)-piperazin-1-yl)butyl)-2a,3,4,5-tetrahydro-1H-benz[cd]indol-2-one] | 30 | 15 | 456
7 | O=C1Nc2cccc3c2C1(CCCCN1CCN(C2CCCc4ccccc42)CC1)CCC3 (stereo not drawn) [Compd. of Syn. Ex. 10d, 2a-(4-(4-(1,2,3,4-Tetrahydronaphthalen-1-yl)-piperazin-1-yl)butyl)-2a,3,4,5-tetrahydro-1H-benz[cd]indol-2-one] | 9.8 | >100 | > 1000
8 | O=C1Nc2cccc3c2C1(CCCCN1CCN2c4ccccc4OCC2C1)CCC3 (stereo not drawn) [Compd. of Syn. Ex. 1b, 2a-[4-(1,2,3,4,4a,5-Hexahydropyrazino[2,1-c]-1,4-benzoxazin-3-yl)-butyl]-2a,3,4,5-tetrahydro-1H-benz[cd]indol-2-one] | 9 | 17 | 151
9 | O=C1Nc2cccc3c2C1(CCCCN1CCc2sccc2C1)CCC3 (stereo not drawn) [Compd. of Syn. Ex. 17c, 2a-(4-(4,5,6,7-Tetrahydro-thieno[3,2-c]pyridin-5-yl)butyl)-2a,3,4,5-tetrahydro-1H-benz[cd]indol-2-one] | 0.9 | >1100 | > 1000
10 | COC(=O)n1c2c(c3ccccc31)CCN(CCCCC13CCCc4cccc(c41)NC3=O)C2 (stereo not drawn) [Compd. of Syn. Ex. 17a, 2a-[4-(9-Methoxycarbonyl-2,3,4,9-tetrahydro-1H-pyrido[3,4-b]indol-2-yl)-butyl]-2a,3,4,5-tetrahydro-1H-benz[cd]indol-2-one] | 9 | 90 | 807
11 | CN1C(=O)C2(CCCCN3CCc4ccccc4C3)CCCc3cccc1c32 (stereo not drawn) [Compd. of Syn. Ex. 14c, 2a-(4-(1,2,3,4-Tetrahydroisoquinolin-2-yl)butyl)-1-methyl-2a,3,4,5-tetrahydro-1H-benz[cd]indol-2-one] | 1.9 | >530 | > 1000
